According to US9227971B2, “Pyrazolo[1,5-a]pyrimidine compounds as mTOR inhibitors” (Merck Sharp & Dohme Corp., priority 2010, dated 2016):
Like-named read-outs stand apart in the source and are kept apart here.

Assays:
[1] = system: phosphorylated AKT Ser473 (pAKT S473), mTORC2 activity, PC3 cells; assay: mTOR target engagement assay, immunofluorescent cell-based, pAKT S473 readout (mTORC2 activity)
Method in brief: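 After blocking, cells were stained overnight at 4 °C with anti-pAKT S473 antibody, then a fluorescent secondary; inhibition was read as reduced fluorescence intensity.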

[2] = system: phosphorylated 4E-BP1 Thr37/46 (p4E-BP1 Thr37/46), mTORC1 activity, PC3 cells; assay: mTOR target engagement assay, immunofluorescent cell-based, p4E-BP1 Thr37/46 readout (mTORC1 activity); conditions: read-out: p4E-BP1 Thr37/46 IC50
Protocol: The target engagement of mTOR kinase inhibitors was evaluated using an immunofluorescent cell-based assay. In this assay, inhibition of mTORC1 activity was measured by the reduction in the level of phosphorylated 4E-BP1^[…] (p4E-BP1 Thr37/46), and inhibition of mTORC2 activity was measured by the reduction of phosphorylated AKT^Ser473 (pAKT S473).
PC3 cells (prostate tumor cell-line that contains a mutation in the tumor suppressor PTEN, that promotes the phosphorylation and activation of AKT and 4E-BP1) were used in the immunofluorescence assay. PC3 cells were seeded on 384 well plates (black clear bottom, Matrix #4332) overnight. PC3 cells were then treated with 40 μl of the serially diluted test compounds (in 5% fetal bovine serum, F12 medium containing 0.25% DMSO) for ninety minutes at 37° C. The test compound solution was removed, and the plates were washed gently two times with 25 μl phosphate buffered saline (PBS). The cells were fixed by adding 25 μl of Prefer reagent (from Anatech LTD, Cat#414, a glyoxal fixative for fixing proteins within a cell) for sixty minutes followed by three washes with PBS. 5% Goat serum in PBS/0.3% Triton was used to block non-specific binding (60 minutes).
The primary antibodies targeting pAKT S473 and p4E-BP1 Thr37/46 were diluted into PBS/0.3% Triton and incubated with the cells overnight at 4° C. The antibodies targeting pAKTS473 (Cat#4085, Cell signaling) and p4E-BP1 Thr37/46 (Cat#2855, Cell signaling) were used at a 1:100 dilution. Plates were washed three times with PBS/0.1% Tween 20 before adding the secondary antibody at a 1:200 dilution. (goat anti-rabbit containing a fluorescent label, Alexa Fluor 488, Cat#A11008, Invitrogen) in PBS/0.3% Triton for 60 minutes.
Finally, the plates were washed three times with PBS/0.1% Tween 20 and the fluorescent intensity was read using an Analyst HT from Molecular Devices. The fluorescent intensity values from the serially diluted compound treatment group were analyzed using the Xlfit 4 program ([…]) (Formula 205: Y=Bottom+(Top-Bottom)/(1+(IC50/X)^Hillslope) to generate the IC50 value. Where Top is the maximum signal without Compound (+DMSO only) and Bottom represents maximum inhibition. Y is the fluorescence at some compound concentration. The control used to determine the fluorescent intensities for 100% pAKT S473 or 100% phosphorylated p4E-BP1 Thr37/46 were measured from untreated wells that contained only DMSO, instead of test compound.

[3] = Homo sapiens, PC-3, Table 3-1, PC3 cells
[4] = Homo sapiens, PC-3, PC3 cells, compound treatment ninety minutes at 37° C.
[5] = Homo sapiens, PC-3, Table 7-8, PC3 cells

SMILES	IC50 [1, 3] [nM]	IC50 [2, 3] [nM]	also measured
CS(=O)(=O)c1c([C@@H]2C[C@H]3CC[C@@H](C2)N3C(=O)c2nnc[nH]2)nc2c(-c3ccc(-c4ccc(OC5CC5)cc4)nc3)cnn2c1N [Compound 3.61, ((1R,3s,5S)-3-(7-amino-3-(6-(4-cyclopropoxyphenyl)pyridin-3-yl)-6-(methylsulfonyl)pyrazolo[1,5-a]pyrimidin-5-yl)-8-azabicyclo[3.2.1]octan-8-yl)(4H-1,2,4-triazol-3-yl)methanone]	100 to 1000	100 to 1000	
Nc1c(C2CC2)c(C2CC3CCC(C2)N3C(=O)c2nnc(N3CCNCC3)[nH]2)nc2c(-c3ccc(-c4ccccc4)nc3)cnn12 [Compound 8.98, ((1R,3s,5S)-3-(7-amino-6-cyclopropyl-3-(6-phenylpyridin-3-yl)pyrazolo[1,5-a]pyrimidin-5-yl)-8-azabicyclo[3.2.1]octan-8-yl)(5-(piperazin-1-yl)-4H-1,2,4-triazol-3-yl)methanone]			IC50 ([1]; Homo sapiens, PC-3, PC3 cells): 1000 to 10000 nM; IC50 ([2]; Homo sapiens, PC-3, PC3 cells): 1000 to 10000 nM
CCc1ccc(-c2cnn3c(N)c(C(C)=O)c([C@@H]4C[C@H]5CC[C@@H](C4)N5C(=O)c4nnc[nH]4)nc23)cn1 [Compound 1.1.99, 1-(5-((1R,3s,5S)-8-(4H-1,2,4-triazole-3-carbonyl)-8-azabicyclo[3.2.1]octan-3-yl)-7-amino-3-(6-ethylpyridin-3-yl)pyrazolo[1,5-a]pyrimidin-6-yl)ethanone]			IC50 [1, 4]: 1 to 100 nM; IC50 [2, 4]: 1 to 100 nM
CCS(=O)(=O)c1c([C@@H]2C[C@H]3CC[C@@H](C2)N3C(=O)c2nnc[nH]2)nc2c(-c3ccc(-c4ccccc4)nc3)cnn2c1N [Compound 3.161, ((1R,3s,5S)-3-(7-amino-6-(ethylsulfonyl)-3-(6-phenylpyridin-3-yl)pyrazolo[1,5-a]pyrimidin-5-yl)-8-azabicyclo[3.2.1]octan-8-yl)(4H-1,2,4-triazol-3-yl)methanone]	1 to 100	1 to 100	
CC(=O)c1c([C@@H]2C[C@H]3CC[C@@H](C2)N3C(=O)c2cn[nH]c2N)nc2c(-c3ccc(-c4ccccc4)nc3)cnn2c1N [Compound 1.1.141, 1-(7-amino-5-((1R,3s,5S)-8-(5-amino-1H-pyrazole-4-carbonyl)-8-azabicyclo[3.2.1]octan-3-yl)-3-(6-phenylpyridin-3-yl)pyrazolo[1,5-a]pyrimidin-6-yl)ethanone]			IC50 [1, 4]: 1 to 100 nM; IC50 [2, 4]: 1 to 100 nM
CC(=O)c1c([C@@H]2C[C@H]3CC[C@@H](C2)N3C(=O)c2nnc[nH]2)nc2c(-c3ccc(C4(O)CCCC4)nc3)cnn2c1N [Compound 7.50, 1-(5-((1R,3s,5S)-8-(4H-1,2,4-triazole-3-carbonyl)-8-azabicyclo[3.2.1]octan-3-yl)-7-amino-3-(6-(1-hydroxycyclopentyl)pyridin-3-yl)pyrazolo[1,5-a]pyrimidin-6-yl)ethanone]			IC50 [1, 5]: 1 to 100 nM; IC50 [2, 5]: 1 to 100 nM
CS(=O)(=O)c1c([C@@H]2C[C@H]3CC[C@@H](C2)N3C(=O)c2nnn[nH]2)nc2c(-c3ccc(-c4ccccc4)nc3)cnn2c1N [Compound 3.5, ((1R,3s,5S)-3-(7-amino-6-(methylsulfonyl)-3-(6-phenylpyridin-3-yl)pyrazolo[1,5-a]pyrimidin-5-yl)-8-azabicyclo[3.2.1]octan-8-yl)(1H-tetrazol-5-yl)methanone]	1000 to 10000	> 10000	
CS(=O)(=O)c1c([C@@H]2C[C@H]3CC[C@@H](C2)N3C(=O)c2cc3cccnc3[nH]2)nc2c(-c3ccc(-c4ccccc4)nc3)cnn2c1N [Compound 3.77, ((1R,3s,5S)-3-(7-amino-6-(methylsulfonyl)-3-(6-phenylpyridin-3-yl)pyrazolo[1,5-a]pyrimidin-5-yl)-8-azabicyclo[3.2.1]octan-8-yl)(1H-pyrrolo[2,3-b]pyridin-2-yl)methanone]	1000 to 10000	> 10000	
CS(=O)(=O)c1c([C@H]2CC3CC[C@H](C2)N3C(=O)c2cn[nH]n2)nc2c(-c3cnc(-c4ccccc4)cn3)cnn2c1N [Compound 3.175]	1000 to 10000	1000 to 10000	
CS(=O)(=O)c1c([C@H]2CC3CC[C@H](C2)N3C(=O)c2cn[nH]n2)nc2c(-c3cnn(-c4ccccc4)c3)cnn2c1N [Compound 3.176, ((1R,3s,5S)-3-(7-amino-6-(methylsulfonyl)-3-(1-phenyl-1H-pyrazol-4-yl)pyrazolo[1,5-a]pyrimidin-5-yl)-8-azabicyclo[3.2.1]octan-8-yl)(2H-1,2,3-triazol-4-yl)methanone]	100 to 1000	100 to 1000	
CS(=O)(=O)c1c([C@@H]2C[C@H]3CC[C@@H](C2)N3C(=O)CO)nc2c(-c3cnn(-c4ccccn4)c3)cnn2c1N [Compound 3.124, 1-((1R,3s,5S)-3-(7-amino-6-(methylsulfonyl)-3-(1-(pyridin-2-yl)-1H-pyrazol-4-yl)pyrazolo[1,5-a]pyrimidin-5-yl)-8-azabicyclo[3.2.1]octan-8-yl)-2-hydroxyethanone]	100 to 1000	1000 to 10000	
CC(=O)c1c([C@@H]2C[C@H]3CC[C@@H](C2)N3C(=O)CO)nc2c(-c3ccc(-c4ccc(F)cc4F)nc3)cnn2c1N [Compound 1.1.164, 1-((1R,3s,5S)-3-(6-acetyl-7-amino-3-(6-(2,4-difluorophenyl)pyridin-3-yl)pyrazolo[1,5-a]pyrimidin-5-yl)-8-azabicyclo[3.2.1]octan-8-yl)-2-hydroxyethanone]			IC50 [1, 4]: 1 to 100 nM; IC50 [2, 4]: 100 to 1000 nM
CS(=O)(=O)c1c([C@@H]2C[C@H]3CC[C@@H](C2)N3C(N)=O)nc2c(-c3ccc(-c4ccc(F)cc4F)nc3)cnn2c1N [Compound 3.125, (1R,3s,5S)-3-(7-amino-3-(6-(2,4-difluorophenyl)pyridin-3-yl)-6-(methylsulfonyl)pyrazolo[1,5-a]pyrimidin-5-yl)-8-azabicyclo[3.2.1]octane-8-carboxamide]	1 to 100	100 to 1000	
CC(=O)c1c(C2CC3CCC(C2)N3C(=O)c2c[nH]nn2)nc2c(-c3ccc(-c4ccccc4)nc3)cnn2c1N [Compound 1.1.21, 1-(5-((1R,3s,5S)-8-(1H-1,2,3-triazole-5-carbonyl)-8-azabicyclo[3.2.1]octan-3-yl)-7-amino-3-(6-phenylpyridin-3-yl)pyrazolo[1,5-a]pyrimidin-6-yl)ethanone]			IC50 [1, 4]: 1 to 100 nM; IC50 [2, 4]: 1 to 100 nM
CC(=O)c1c([C@@H]2C[C@H]3CC[C@@H](C2)N3C(=O)c2nnc[nH]2)nc2c(-c3ccc(C#CCO)nc3)cnn2c1N [Compound 8.56, 1-(5-((1R,3s,5S)-8-(4H-1,2,4-triazole-3-carbonyl)-8-azabicyclo[3.2.1]octan-3-yl)-7-amino-3-(6-(3-hydroxyprop-1-ynyl)pyridin-3-yl)pyrazolo[1,5-a]pyrimidin-6-yl)ethanone]			IC50 ([1]; Homo sapiens, PC-3, PC3 cells): 100 to 1000 nM; IC50 ([2]; Homo sapiens, PC-3, PC3 cells): 100 to 1000 nM
CS(=O)(=O)c1c([C@@H]2C[C@H]3CC[C@@H](C2)N3C(=O)c2nnc[nH]2)nc2c(-c3cnc(-c4ccccc4)c(O)c3)cnn2c1N [Compound 3.22, ((1R,3s,5S)-3-(7-amino-3-(5-hydroxy-6-phenylpyridin-3-yl)-6-(methylsulfonyl)pyrazolo[1,5-a]pyrimidin-5-yl)-8-azabicyclo[3.2.1]octan-8-yl)(4H-1,2,4-triazol-3-yl)methanone]	100 to 1000	1000 to 10000	
CS(=O)(=O)c1c([C@@H]2C[C@H]3CC[C@@H](C2)N3c2nnc[nH]2)nc2c(-c3ccc(-c4ccccc4)nc3)cnn2c1N [Compound 3.21, 5-((1R,3s,5S)-8-(4H-1,2,4-triazol-3-yl)-8-azabicyclo[3.2.1]octan-3-yl)-6-(methylsulfonyl)-3-(6-phenylpyridin-3-yl)pyrazolo[1,5-a]pyrimidin-7-amine]			IC50 ([1]; Table 3-1, PC3 cells): 1000 to 10000 nM; IC50 ([2]; Table 3-1, PC3 cells): 1000 to 10000 nM
CS(=O)(=O)c1c([C@@H]2C[C@H]3CC[C@@H](C2)N3C(=N)N)nc2c(-c3ccc(-c4ccccc4)nc3)cnn2c1N [Compound 8.73, (1R,3s,5S)-3-(7-amino-6-(methylsulfonyl)-3-(6-phenylpyridin-3-yl)pyrazolo[1,5-a]pyrimidin-5-yl)-8-azabicyclo[3.2.1]octane-8-carboximidamide]			IC50 ([1]; Homo sapiens, PC-3, PC3 cells): 1000 to 10000 nM; IC50 ([2]; Homo sapiens, PC-3, PC3 cells): 1000 to 10000 nM
